Measured values as given in patent publication US20130190169A1, “SYNERGISTIC FUNGICIDAL COMBINATION” (priority 2010, published 2013).

System: strain Mg Ref 1 of M. graminicola
Experiment: In vitro evaluation of the sensitivity level of M. graminicola towards epoxiconazole and folpet alone or in admixture (mycelial growth by optical density, 96-well microtitre plate, Wadley method)
Format: cell-based, Mycosphaerella graminicola
Settings: Zymoseptoria tritici, 168 h, fungicide used alone, 7 days, 19° C., OD 405 nm
Protocol: The Wadley method is well-known method for determining whether synergy exists. In the Wadley method, synergistic activity is determined from dose response curves. With this method, the efficacy of the active ingredient (“a.i.”) is determined by comparing the degree of fungal attack on treated plants with that on untreated, similarly inoculated and incubated check plants. Each a.i. is generally tested at multiple (e.g., 6) concentrations, and dose response curves are generated. The dose response curves are used to establish the EC50 (i.e., the effective concentration of a.i. providing 50% disease control) of the individual compounds as well as of the combinations (EC50observed). The experimentally found values of the mixture at a given weight ratio are compared ith the values that would have been found were only a complementary efficacy of the components was present (EC50 (A+B)expected). The EC50 (A+B)expected is generally calculated according to Wadley (Levi et al., EPPO-Bulletin 16, 1986, 651-657) or (Wadley, F. M., U.S. Dep. Agric., Res. Adm., Bur. Entomol. And Plant Quar. ET-223, 1945, 8) as follows:
EC50(A+B)expected−(a+b)/[(a/EC50(A)observed)+b/EC50(B)observed)] […]
The degree of mycelial growth in the liquid medium was assessed by measuring the optical density of the wells containing the spore suspensions and fungicide concentrations. […]

SMILES	EC50
Fc1ccc([C@]2(Cn3cncn3)O[C@H]2c2ccccc2Cl)cc1 (racemic) [Epoxiconazole, (2RS;3SR)-1-[3-(2-chlorophenyl)-2,3-epoxy-2-(4-fluorophenyl)propyl]-1H-1,2,4-triazole]	0.01 µg/mL
O=C1c2ccccc2C(=O)N1SC(Cl)(Cl)Cl [Folpet, N-(trichloromethanesulfenyl)phthalimide]	2.39 µg/mL
